Test results taken from the METLIN SMRT retention time set (Domingo-Almenara et al. 2019).

Assay: gradient 5% acetonitrile 3 min, to 50% in 2 min, to 85% in 15 min, held 3 min, 100 µL/min
Details: column: Zorbax Extend-C18 2.1 x 50 mm; eluents: water / acetonitrile, 0.1% formic acid
How it was run: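 Data were gathered over 3 months by HPLC coupled to a quadrupole time-of-flight mass spectrometer, operated in positive and negative ionization mode. Mixtures of ~100 pure standards ran on a Zorbax Extend-C18 column (2.1 × 50 mm, 1.8 μm) at 100 μL/min, with water and acetonitrile each containing 0.1% formic acid and dead and dwell volumes of 40 μL and 900 μL. Retention time was read from adduct peaks picked by computer and checked manually.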

For Cc1[nH]c(C(=O)Nc2ccc(F)c(Cl)c2)c(C)c1S(=O)(=O)N1CCCCC1, the RP-LC retention time was 1020 s.

Molecule COC(=O)CSc1nnc(-c2sc3ncccc3c2N)n1C1CC1 has an RP-LC retention time of 694 s.

For Cc1ccc(-c2nc3nc(C)cc(N4CCOCC4)n3n2)cc1, the RP-LC retention time was 763 s.

Molecule O=C(CCN(CC1CCCO1)C(=O)c1ccc(C(F)(F)F)cc1)N1CCNCC1 (stereo not given) has an RP-LC retention time of 628 s.

Molecule Cc1cc(OCC(=O)NCc2ccccc2Br)nc(N2CCCC2)n1 has an RP-LC retention time of 640 s.

With Cc1cc(C)cc(Oc2nccn3c(=O)n(CC(=O)NC4CCCC4)nc23)c1 the RP-LC retention time was 834 s.

Molecule CCOC(=O)N1CCC(Nc2c(N3CCN(c4ccccn4)CC3)c(=O)c2=O)CC1 has an RP-LC retention time of 572 s.

Work on CCc1cc(=O)n(CC(=O)Nc2cccc(F)c2)c(N)n1 yielded an RP-LC retention time of 613 s.

In the case of CN(C(=O)C(=O)Nc1ccc2nc3n(c(=O)c2c1)CCCCC3)c1cccc(C(F)(F)F)c1, the RP-LC retention time is reported as 819 s.

In the case of CC1CCN(c2nc(C(=O)N3CCN(C(C)C)CC3)nc3c2cnn3C)CC1, the RP-LC retention time is reported as 604 s.

Work on Fc1ccc(-c2ccc(CNC3CN4CCC3CC4)o2)cc1 (stereo not given) yielded an RP-LC retention time of 558 s.

Molecule Cc1cccc(Sc2nccnc2N2CCC(C(=O)NCCC(C)C)CC2)c1 has an RP-LC retention time of 1100 s.

Cc1ccc(CC(=O)Nc2cc(-c3ccc(C)s3)no2)cc1 gave an RP-LC retention time of 1050 s.

Molecule CCC(C)NC(=O)c1ccc2c(c1)Sc1ncccc1C(=O)N2C(C)C (stereo not given) has an RP-LC retention time of 784 s.

For O=C(CCc1ccccc1)NC1CCN(c2nnc3ccccn23)CC1, the RP-LC retention time was 633 s.

For COc1c(C(=O)NC(C)c2ccccc2)sc2cccc(F)c12 (stereo not given), the RP-LC retention time was 1140 s.

In the case of Cc1noc(C)c1Cc1ccc(C(=O)NCC2Cn3cccc3C(=O)N2C)o1 (stereo not given), the RP-LC retention time is reported as 669 s.

In the case of CCn1cnc2ccc(-c3noc(-c4ccc(F)cc4)n3)cc21, the RP-LC retention time is reported as 780 s.

Work on CCn1c(C2CCN(C(=O)c3ccc(C(F)(F)F)s3)C2)nc2cccnc21 (stereo not given) yielded an RP-LC retention time of 782 s.

Work on COC1CN(c2ccc(C)cc2)C12CCNCC2 (stereo not given) yielded an RP-LC retention time of 622 s.

COc1ccc(N2CCN(C(=O)C3CCCN(c4cc(=O)n(C)c(=O)n4C)C3)CC2)cc1 (stereo not given) showed an RP-LC retention time of 696 s.

For Cc1cccc(N2CCN([C@H]3CS(=O)(=O)C[C@@H]3S(=O)(=O)c3ccccc3)CC2)c1, the RP-LC retention time was 876 s.

Molecule C=CCN1CCN(c2nc3cc(C(=O)OC)ccc3c(=O)n2-c2ccc(Cl)cc2)CC1 has an RP-LC retention time of 681 s.

For COC(=O)c1cccc(C(=O)N2CCc3ccccc3C2)n1, the RP-LC retention time was 769 s.

In the case of CC1CCCCN1CCCN1C(=O)c2ccccc2C1C(=O)NC1CCCCC1 (stereo not given), the RP-LC retention time is reported as 642 s.

Molecule O=C(c1cccc2[nH]cc(CN3CCOCC3)c12)N1CCN(c2ccc(Cl)cc2)CC1 has an RP-LC retention time of 753 s.

COc1ccccc1N1CCN(C(=O)c2cc3c(=O)n(C)ccc3n2C)CC1 showed an RP-LC retention time of 651 s.

CCC(C)NC(=O)N(C)CCc1noc(COc2ccc(Cl)cc2)n1 (stereo not given) gave an RP-LC retention time of 869 s.

O=C(COc1ccc(F)cc1)NCc1ccc2c(c1)OCCCO2 gave an RP-LC retention time of 853 s.

Work on CCn1cc(-c2nc(CC(=O)Nc3ccc(F)cc3F)cs2)c2cccnc21 yielded an RP-LC retention time of 992 s.

For COC(=O)c1cccc(NC(=O)CSc2cc(N3CCN(c4ccccc4OC)CC3)ncn2)c1, the RP-LC retention time was 926 s.

COC(=O)c1nnn(-c2ccc(C)c(Cl)c2)c1C(=O)OC showed an RP-LC retention time of 965 s.

Cc1cccc(C)c1-n1ccn(Cc2nc(-c3ccc(F)c(Cl)c3)no2)c(=O)c1=O showed an RP-LC retention time of 976 s.

CN(C(=O)Cn1ccc2c(=O)n(C)c(=O)n(C)c21)c1cccc(Cl)c1 gave an RP-LC retention time of 709 s.

Molecule COC(=O)c1c(C)[nH]c(C(=O)N2CCCC(C(=O)NCCCN3CCCCC3)C2)c1C (stereo not given) has an RP-LC retention time of 596 s.

With COc1cccc(CN2C[C@@H](CO)[C@H](c3ccccn3)C2)c1OC the RP-LC retention time was 592 s.

CN(C)c1ccc(C(CNC(=O)c2ccco2)N2CCc3ccccc3C2)cc1 (stereo not given) gave an RP-LC retention time of 582 s.

Molecule Clc1ccc(Sc2c(-c3ccc(Br)cc3)nc3ccccn23)cc1 has an RP-LC retention time of 1290 s.

In the case of Cn1nc(C(=O)N2CCCC2)c2c1CCN(C(=O)Nc1ccc(F)cc1F)C2, the RP-LC retention time is reported as 718 s.

For CC(C)CCNC(=O)C1CCCN(c2ncc(-c3ccc(F)cc3)cn2)C1 (stereo not given), the RP-LC retention time was 1060 s.

Molecule O=C(NCc1cscn1)C1CCN(S(=O)(=O)c2cccc3nsnc23)CC1 has an RP-LC retention time of 659 s.

Molecule CC(C)OCCCNC(=O)C1CCN(c2ncnc3c2oc2ccccc23)CC1 has an RP-LC retention time of 662 s.

In the case of Cc1ccc(NC(=O)Nc2ccc3c(c2)CCN3S(=O)(=O)c2ccccc2)cc1F, the RP-LC retention time is reported as 1020 s.

Molecule Cc1nnc([C@@H]2CC(F)(F)CN2C(=O)c2ccc3ccccc3n2)o1 has an RP-LC retention time of 756 s.

For O=C(NCCc1ccccc1)N1C[C@@H]2C[C@H](NS(=O)(=O)c3cccnc3)[C@H]1C2, the RP-LC retention time was 679 s.

Work on Cc1c(Cl)cccc1S(=O)(=O)N1CCC(CN2CCCCCC2)CC1 yielded an RP-LC retention time of 733 s.

CCN1C(=O)CCC2(C(=O)Nc3ccc(N4CCOCC4)cc3)CCCC=C12 (stereo not given) showed an RP-LC retention time of 663 s.

Cc1sc2ncnc(SCC(=O)c3ccc4c(c3)OCCO4)c2c1C gave an RP-LC retention time of 1040 s.

CC(C)NC(=O)NCC1Cn2cccc2C(=O)N1Cc1ccccc1 (stereo not given) showed an RP-LC retention time of 696 s.

With O=C(Cn1cnc(-c2noc(-c3ccncc3)n2)c1)N1CCc2ccccc21 the RP-LC retention time was 634 s.

CSc1cccc(NC(=O)CSc2nccc(N3CCN(c4cc(C)ccc4C)CC3)n2)c1 gave an RP-LC retention time of 938 s.

For Cc1ccc(N(C)S(=O)(=O)c2ccc(-c3c(C)noc3C)cc2)cc1, the RP-LC retention time was 1060 s.

COc1ccc(-c2noc(CNC(=O)Nc3ccc(Cl)cc3)n2)cc1OC gave an RP-LC retention time of 852 s.

In the case of Cc1cc(C)cc(NC(=O)Cn2ncc3c(c2=O)N(CC2CC2)C(=O)CS3)c1, the RP-LC retention time is reported as 883 s.

In the case of O=C(Nc1cc(F)ccc1F)N1CCCC1c1nncn1-c1ccccc1 (stereo not given), the RP-LC retention time is reported as 717 s.

In the case of CC(C)NC(=O)NC1CCN(c2ccc(F)cc2)C1=O (stereo not given), the RP-LC retention time is reported as 659 s.

Cc1cccnc1NC(=O)C1CCN(S(=O)(=O)c2ccc3c(c2)sc(=O)n3C(C)C)CC1 showed an RP-LC retention time of 844 s.

With COc1cccc(S(=O)(=O)N2C[C@@H]3C[C@H]2C[C@@H]3NC(=O)c2cccs2)c1 the RP-LC retention time was 854 s.

Cn1nc(-c2nnc(-c3ccccc3)o2)c2c1CCN(S(=O)(=O)c1cccc3nsnc13)C2 showed an RP-LC retention time of 905 s.

O=C1NC2(CCN(C(=O)c3ccc4c(c3)OCO4)CC2)Nc2c(Cl)cccc21 gave an RP-LC retention time of 678 s.

Cc1ccc(C(O)CN2CCN(c3ccccc3)CC2)c(C)c1 (stereo not given) gave an RP-LC retention time of 703 s.

With CN(CCNC(=O)C1=Cc2ccccc2OC1)C1CCCCC1 the RP-LC retention time was 675 s.

CCCCNC(=O)C(=O)NCc1n[nH]c(=O)c2ccccc12 showed an RP-LC retention time of 659 s.

For CC(=O)N1CCc2cc(N3CC(C(=O)Nc4cccc(Cl)c4F)CC3=O)ccc21 (stereo not given), the RP-LC retention time was 742 s.

With Cc1cc(-c2ccc(NC(=O)c3cccs3)c(C)c2)ccc1NC(=O)c1ccsc1 the RP-LC retention time was 878 s.

Work on Cc1ccc(C2=NC3(CCN(C(=O)CSc4ccccc4)CC3)ON2)cc1 yielded an RP-LC retention time of 894 s.

Cc1ccc(-c2nc3cnccn3c2NCCC(=O)NC(C)C)cc1 showed an RP-LC retention time of 618 s.

In the case of O=C(CC1CCN(C(=O)C2CCCCC2)CC1)NCc1ccccn1, the RP-LC retention time is reported as 596 s.

Work on Cc1c(OC(C)C(=O)O)ccc2c1oc(=O)c1ccccc12 (stereo not given) yielded an RP-LC retention time of 847 s.

CC1CCC(NC(=O)C2CCCN(S(=O)(=O)c3c[nH]c(C(=O)N4CCCC4)c3)C2)CC1 (stereo not given) gave an RP-LC retention time of 784 s.

Cn1nc(-c2nnc(-c3ccc(F)cc3)o2)c2c1CCN(S(=O)(=O)c1ccc3c(c1)CCCC3)C2 showed an RP-LC retention time of 1090 s.

In the case of Cc1ccc(N2CCN(Cc3nc(-c4ccc(N5CCCC(C)C5)nc4)no3)CC2)cc1 (stereo not given), the RP-LC retention time is reported as 1060 s.

Molecule Cc1cccn2cc(C(=O)NCc3cccc(F)c3)nc12 has an RP-LC retention time of 645 s.

Work on O=C1NC2(CCN(C(=O)NCc3ccc(F)cc3)CC2)Nc2cc(Cl)ccc21 yielded an RP-LC retention time of 740 s.

For COC(=O)c1cccc(NC(=O)Nc2c(-c3cccnc3)[nH]c3ccccc23)c1, the RP-LC retention time was 667 s.

For CCOC(=O)c1ccc(CN2C(=O)CSC2=O)cc1, the RP-LC retention time was 786 s.

CCCc1noc(-c2ccnc(-n3ncc(C(=O)NC(C)C)c3C)c2)n1 showed an RP-LC retention time of 868 s.

CCOC(=O)Nc1nc2c(s1)CN(C(=O)Nc1ccc3c(c1)OCO3)CC2 gave an RP-LC retention time of 670 s.

CCc1noc(-c2ccc(SCC(=O)N3CCC(C(N)=O)CC3)nc2)n1 gave an RP-LC retention time of 639 s.

Work on O=C(NC1CCCCC1)C(c1ccc(Cl)cc1)N1CCN(C(=O)c2ccco2)CC1 (stereo not given) yielded an RP-LC retention time of 773 s.

For O=C(CC1CCCCC1)N1CCN(c2cc(-c3ccc(Cl)cc3)[nH]n2)CC1, the RP-LC retention time was 936 s.

Work on CC(O)(CNC(=O)NC1CCCCC1)c1ccc2c(c1)OCO2 (stereo not given) yielded an RP-LC retention time of 709 s.

For CC1=C(c2ccc(F)cc2)S(=O)(=O)N=C1N1CCCN(C(=O)CC(C)C)CC1, the RP-LC retention time was 814 s.

CC(C)CCSc1nnc2c(S(=O)(=O)N3CCN(c4ccc(F)cc4)CC3)cccn12 showed an RP-LC retention time of 1060 s.

With O=C(NCc1ccccc1)c1cn(Cc2ccc(NC(=O)C3CCCCC3)cc2)cn1 the RP-LC retention time was 749 s.

With COc1ccc(Cc2nnc(C3CCN(C(=O)c4ccc(=O)[nH]c4)CC3)s2)cc1 the RP-LC retention time was 612 s.

Molecule CCCNC(=O)C1CC(=O)N(c2ccc3c(c2)CCN3C(=O)C2CC2)C1 (stereo not given) has an RP-LC retention time of 659 s.

Work on Cn1cnc(S(=O)(=O)N2CCCC(c3[nH]ccc3C(N)=O)C2)c1 (stereo not given) yielded an RP-LC retention time of 586 s.

Molecule COc1ccc(-c2csc(C)n2)cc1S(=O)(=O)N(C)c1ccc(C)cc1 has an RP-LC retention time of 1040 s.

O=C(c1ccccn1)N1CCN(C(=O)c2nnn3c2COC(c2ccc(Cl)cc2)C3)CC1 (stereo not given) gave an RP-LC retention time of 784 s.
